The results in this text go back to patent publication US6933302B2, “Nitrogen-based homo-camptothecin derivatives” (California Pacific Medical Center, priority 2002, dated 2005).

The test system of the test is VM46 cells. The test can be described thus: Cell colony formation assay. To be noted: 72 hours drug incubation at 37° C., colonies counted after 8 days. The class given is cell-based. As for the experimental part: This example provides directions for growing cells and testing compounds of the invention for their effect on the growth of the cells. All cells can be purchased from DCTDC Tumor Repository, NCI, NIH.
Cell Colony Formation Assay
Five hundred cells (VM46) are plated in 60 mm Petri dishes containing 2.7 ml of medium (modified McCoy's 5a medium containing 10% fetal bovine serum and 100 units/ml penicillin and […]). The cells are incubated in a CO2 incubator at 37° C. for 5 hours for attachment to the bottom of Petri dishes. Drugs are made fresh in medium at ten times the final concentration, and then 0.3 ml of this stock solution is added to the 2.7 ml of medium in the dish. The cells are then incubated with drugs for 72 hours at 37° C. At the end of the incubation the drug-containing media are decanted, the dishes are rinsed with 4 ml of Hank's Balance Salt Solution (HBSS), 5 ml of fresh medium is added, and the dishes are returned to the incubator for colony formation. The cell colonies are counted using colony counter after incubation for 8 days for VM46 cells. Cell survival (%) is calculated .
Values of ID50 (the drug concentration producing 50% inhibition of colony formation) may be determined for each tested compound. Results are shown in Table I for hCPT as a compound of this invention taught in Example 16.

Consider `CC[C@@]1(O)CC(=O)OCc2c1cc1n(c2=O)Cc2cc3ccccc3nc2-1` [hCPT, homo-camptothecin], for which the “Value of ID50 (drug concentration producing 50% inhibition of colony formation)” value turned out to be 4 NM.
Take `CCC1(OC(=O)CCN2CCCCC2)CC(=O)OCc2c1cc1n(c2=O)Cc2cc3ccccc3nc2-1` (centres unmarked) [Example 021219, Homocamptothecin-20-O ester of 1-piperidine Propionic Acid]: the “Value of ID50 (drug concentration producing 50% inhibition of colony formation)” value is reported as 3.5 NM.
